Results: patent publication US9983196B2, “Compositions and methods for optimizing drug hydrophobicity and drug delivery to cells” (Bioelastics, Inc., priority 2009, dated 2018)

Experiments:
[1] = negatively stained, electron micrograph; cited from earlier work
[2] = cited from earlier work; for ΔG°HA(GχGVP) (data within parentheses): microbial preparations of poly(30 mers), n ≈ 40
[3] = differential scanning calorimetry of the inverse temperature transition: ΔGHA-based hydrophobicity scale; type: physicochemical
Source text: Described herein is a hydrophobicity scale based on the change in Gibbs free energy of hydrophobic association. Increase in entropy of water drives endothermic phase transition of hydrophobic association. For a narrow phase transition the chemical potential, t, of the molecules in the phase separated, hydrophobically associated state, 1.IHA, and the solution, hydrophobically dissociated state, 1.1HD, are equal. Therefore, at constant temperature and pressure, i.e., at equilibrium, the change in Gibbs free energy for the phase transition is zero, (ΔGt)TP=0 and ΔHT=TtΔSt. For the breadth of the transition of elastic-contractile model proteins [ECMP], it is written: ΔHt≈TtΔSt, (1) i.e., the heat of the transition, ΔHt in kcal/mol, is approximated by the product of the temperature of the transition, Tt in ° K, times the entropy change attending the transition, ΔSt in kcal/° K-mol.
The van der Walls interaction is exothermic for the hydrophobic association attending the ITT, yet the ITT is endothermic. […] The derivation of the change in Gibbs free energy for hydrophobic association, ΔGHA, and evaluation by inverse temperature transition of hydrophobic association has been reported previously (D. W. Urry, The Change in Gibbs Free Energy for Hydrophobic Association Derivation and Evaluation by means of Inverse Temperature Transitions. Chem. Phys. Letters 399 (2004) 177-183.), and is given more simply below. […]
Given the above approximation, but also recognizing that ASt is a calculated result from the differential scanning calorimetric measurement of ΔHt, we define the change in Gibbs free energy for hydrophobic association, ΔGHA, as,
The differential scanning calorimetry (DSC) data of ΔHt(GVGVP) (SEQ ID NO:4) and ΔHt(GVGIP) (SEQ ID NO:8) in FIG. 1 of Luan and Urry, J Phys Chem 95:7896-7900, 1991 provide a specific example of the difference that defines ΔGHA. […] This is the same value of 1.5 kcal/mol-CH2 for the addition of a single CH2 as determined by Butler for the alcohol series.
Once the values are determined by difference with ΔHt(GVGVP) (SEQ ID NO:4) as represented in FIG. 1E, they are translated so the reference polymer is taken as (GGGVP (SEQ ID NO:11), as this residue is considered to be close to neutral, being neither polar nor apolar. For use of (GGGVP) (SEQ ID NO:11) as the reference, i.e., ΔHt(GGGVP) (SEQ ID NO:11)=AHt(ref), in Table 3 and FIG. 13, the change in Gibbs free energy for hydrophobic association is indicated as ΔG^oHA, i.e., […]
In this case most of the ΔG^oHA values have been obtained by taking the experimental Tt, suitably extrapolated to fx=1 to obtain Tt, and reading the value of ΔG^oHA from the sigmoid curve of FIG. 13. […]

[4] = cited from earlier work; for Tt (data within parentheses): microbial preparations of poly(30 mers) (GVGVP GVGVP GχGVP GVGVP GVGVP GVGVP)n, n ≈ 40; for Tt: guest residue χ in poly[fχ(GχGVP),fv(GVGVP)], extrapolated to fχ=1, some cells marked (Tt)

Substance	ΔG°HA(GχGVP) (data within parentheses) [2]	ΔGHA of ionization (neutral versus charged residue) ([3]; from Table 1)	Tt (data within parentheses) [4]	Tt [4]	also measured
(GVGVPGVGFPGEGFPGVGVPGVGFPGFGFP)42 (GVGVP) (GVGVPGVGFPGEGFPGVGVPGVGFPGFGFPGVGVP; repeat (1)..(30) the first 30 residues are repeated 42 times) [ECMP polymer of 253 pentamers forming drug delivery nanoparticles]					nominal size of nanoparticles [1]: 50 nm
Glu(COO^−) [E−: Glu(COO^−)]	(+3.72) kcal/mol-pentamer	5.2 kcal/mol-pentamer	(218) ° C.		
Leu [L: Leu]				5 °C	ΔG°HA(GχGVP) ([2]; DSC, reference GGGVP = 0): −4.05 kcal/mol-pentamer; change on replacement of Val by Leu (single —CH2—) ([3]; from Table 1): −1.55 kcal/mol-CH2
Lys(NH3+) [K+: Lys(NH3+)]	(+2.94) kcal/mol-pentamer	3.5 kcal/mol-pentamer	(104) ° C.		
Ser (PO4^−2)				860 (Tt) ° C.	ΔG°HA(GχGVP) (from graph) ([2]; Tt used to obtain value from experimental sigmoid curve of Tt versus ΔG°HA): ≈+8.0 (from graph) kcal/mol-pentamer; ΔG°HA from FIG. 13 ([2]; gross estimates (±0.5 kcal/mol) from Tt and curve, 40 mg/ml polymer, 0.15N NaCl, 0.01M phosphate pH 7.4): +8.0 kcal/mol; contribution to change in Gibbs free energy for hydrophobic association on phosphorylation of Ser [3]: about +8 kcal/mol; Tt linearly extrapolated to fX = 1 ([4]; poly[fV(VPGVG),fX(VPGXG)], 40 mg/ml polymer, 0.15N NaCl, 0.01M phosphate pH 7.4): 860 °C
